What was measured:
Test in all cases: Bliss excess, mean over the matrix (fraction); higher = more synergy
[1] = test system: SNU-387 (Hepatocellular Carcinoma)
Method in brief: (§1)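 Cell lines grown in DMEM/F12 or RPMI with 10% FBS were plated in 1536-well plates and held 24 hours at 37°C, 5% CO2 before 72 hours of exposure to two-drug dose matrices, with DMSO typically at 0.2%. CellTiter-Glo 2.0 luminescence gave viability, which was converted to inhibition. Vehicle wells were set to 0 and blank wells to 1. Combination Emax is the second-highest inhibition in the matrix, and Bliss excess is the observed combination effect minus the expected EA + EB − EA·EB, where EA and EB are the single-agent effects.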

[2] = test system: NCI-H1993 (Lung Adenocarcinoma)
Method in brief: as §1

[3] = test system: Mo-T (Other Blood Carcinomas)
Method in brief: as §1

[4] = test system: MOLT-4 (T-Lymphoblastic Leukemia)
Method in brief: as §1

[5] = test system: MV-4-11 (Acute Myeloid Leukemia)
Method in brief: as §1

[6] = test system: KGN (Other Solid Carcinomas)
Method in brief: as §1

COLO-679 (Melanoma) = test system: COLO-679 (Melanoma)
Method in brief: as §1

[7] = test system: KMRC-1 (Kidney Carcinoma)
Method in brief: as §1

[8] = test system: COLO-668 (Small Cell Lung Carcinoma)
Method in brief: as §1

[9] = test system: SK-LU-1 (Lung Adenocarcinoma)
Method in brief: as §1

[10] = test system: SKN (Other Solid Carcinomas)
Method in brief: as §1

[11] = test system: NCI-H1355 (Lung Adenocarcinoma)
Method in brief: as §1

[12] = test system: ML-2 (Acute Myeloid Leukemia)
Method in brief: as §1

[13] = test system: A4-Fuk (B-Lymphoblastic Leukemia)
Method in brief: as §1

[14] = test system: NCI-H1092 (Small Cell Lung Carcinoma)
Method in brief: as §1

Hey (Ovarian Carcinoma) = test system: Hey (Ovarian Carcinoma)
Method in brief: as §1

[15] = test system: G-401 (Other Solid Carcinomas)
Method in brief: as §1

[16] = test system: HCC1500 (Breast Carcinoma)
Method in brief: as §1

[17] = test system: HCC1937 (Breast Carcinoma)
Method in brief: as §1

[18] = test system: EJM (Plasma Cell Myeloma)
Method in brief: as §1

SMILES	Bliss excess [1]	Bliss excess [2]	Bliss excess [3]	Bliss excess [4]	Bliss excess [5]	Bliss excess [6]	Bliss excess (COLO-679 (Melanoma))	Bliss excess [7]	Bliss excess [8]	Bliss excess [9]	Bliss excess [10]	Bliss excess [11]	Bliss excess [12]	Bliss excess [13]	Bliss excess [14]	Bliss excess (Hey (Ovarian Carcinoma))	Bliss excess [15]	Bliss excess [16]	Bliss excess [17]	Bliss excess [18]
C=CCn1c(=O)c2cnc(Nc3ccc(N4CCN(C)CC4)cc3)nc2n1-c1cccc(C(C)(C)O)n1 [AZD1775] + CCc1c2c(nc3ccc(O)cc13)-c1cc3c(c(=O)n1C2)COC(=O)[C@]3(O)CC [SN-38] (first compound max 1 µM, partner max 0.3 µM)	-0.0303	0.0354	-0.0799	0.0188	-0.0281	-0.114	-0.171	-0.0817	-0.0448	-0.133	-0.0126	-0.0622	-0.0033	-0.0617	–	–	–	–	–	–
C=CCn1c(=O)c2cnc(Nc3ccc(N4CCN(C)CC4)cc3)nc2n1-c1cccc(C(C)(C)O)n1 [AZD1775] + Nc1ccn([C@@H]2O[C@H](CO)[C@@H](O)C2(F)F)c(=O)n1 [Gemcitabine] (first compound max 1 µM, partner max 0.3 µM)	-0.0035	-0.0021	-0.0204	0.0162	0.0238	0.0009	-0.067	-0.0495	-0.0734	-0.0837	-0.0709	0.0478	0.0482	0.009	–	–	–	–	–	–
CN(CCO)CC[C@H](CSc1ccccc1)Nc1ccc(S(=O)(=O)NC(=O)c2ccc(N3CCC([C@@H](O)c4ccccc4-c4ccc(Cl)cc4)CC3)cc2)cc1S(=O)(=O)C(F)(F)F [AZD4320] + CS(=O)(=O)CCNCc1ccc(-c2ccc3ncnc(Nc4ccc(OCc5cccc(F)c5)c(Cl)c4)c3c2)o1 [Lapatinib] (first compound max 1 µM, 7x7, partner max 10 µM)	0.0496	0.0682	0.0485	0.0886	0.018	-0.0448	-0.106	0.0223	0.0881	-0.0415	-0.0188	0.0077	0.0678	-0.0065	–	–	–	–	–	–
Cc1c2c(nn1C)CSCc1cc(n(C)n1)CSc1cc(c3ccccc3c1)OCCCc1c(C(=O)O)n(C)c3c-2c(Cl)ccc13 [AZD5991] + CC(=O)O[C@H]1C(=O)[C@@]2(C)[C@H]([C@H](OC(=O)c3ccccc3)[C@]3(O)C[C@H](OC(=O)[C@H](O)[C@@H](NC(=O)c4ccccc4)c4ccccc4)C(C)=C1C3(C)C)[C@]1(OC(C)=O)CO[C@@H]1C[C@@H]2O [Paclitaxel] (first compound max 1 µM, 7x7, partner max 3 µM)	0.0019	-0.037	-0.0521	0.0219	0.0129	0.0025	0.0314	0.0286	0.028	-0.0288	-0.007	-0.0431	0.0157	-0.0069	–	–	–	–	–	–
Cc1c2c(nn1C)CSCc1cc(n(C)n1)CSc1cc(c3ccccc3c1)OCCCc1c(C(=O)O)n(C)c3c-2c(Cl)ccc13 [AZD5991] + CS(=O)(=O)CCNCc1ccc(-c2ccc3ncnc(Nc4ccc(OCc5cccc(F)c5)c(Cl)c4)c3c2)o1 [Lapatinib] (first compound max 1 µM, 7x7, partner max 10 µM)	-0.028	–	-0.0344	0.0254	0.0343	-0.0049	-0.149	-0.0282	0.0395	-0.0423	-0.0365	0.0127	0.0008	0.0199	–	–	–	–	–	–
Cc1c2c(nn1C)CSCc1cc(n(C)n1)CSc1cc(c3ccccc3c1)OCCCc1c(C(=O)O)n(C)c3c-2c(Cl)ccc13 [AZD5991] + Nc1ccn([C@@H]2O[C@H](CO)[C@@H](O)C2(F)F)c(=O)n1 [Gemcitabine] (first compound max 1 µM, 7x7, partner max 0.3 µM)	-0.0021	-0.0064	-0.0226	0.0224	0.0035	-0.0457	-0.0703	-0.0638	-0.0674	-0.0518	-0.0331	-0.0333	0.0116	-0.0182	–	–	–	–	–	–
C[C@@H]1COCCN1c1cc(C2([S@](C)(=N)=O)CC2)nc(-c2ccnc3[nH]ccc23)n1 [AZD6738] + C1CC(C1)(C(=O)[O-])C(=O)[O-].N.N.[Pt+2] [Carboplatin] (first compound max 10 µM, 7x7, partner max 10 µM)	-0.0308	-0.0211	-0.0272	-0.013	-0.0339	-0.0084	-0.0944	-0.0289	0.025	-0.0088	-0.0766	-0.0345	-0.0111	-0.0571	–	–	–	–	–	–
C[C@@H]1COCCN1c1cc(C2([S@](C)(=N)=O)CC2)nc(-c2ccnc3[nH]ccc23)n1 [AZD6738] + Nc1ccn([C@@H]2O[C@H](CO)[C@@H](O)C2(F)F)c(=O)n1 [Gemcitabine] (first compound max 10 µM, 7x7, partner max 0.3 µM)	0.0597	-0.0098	0.002	0.0315	0.0067	0.0065	-0.0611	0.0601	0.0525	-0.0668	0.0033	0.0732	0.108	-0.0486	–	–	–	–	–	–
C[C@@H](Nc1cc(F)cc(F)c1)c1cc(C(=O)N(C)C)cc2c(=O)cc(N3CCOCC3)oc12 [AZD8186] + C1CN(CCC1(C(=O)N[C@@H](CCO)C2=CC=C(C=C2)Cl)N)C3=NC=NC4=C3C=CN4 [AZD5363] (first compound max 10 µM, 7x7, partner max 10 µM)	-0.0959	0.0154	-0.0393	-0.0083	0.0103	0.0547	-0.12	-0.0524	-0.002	0.02	-0.1	-0.0244	-0.0217	-0.0183	–	–	–	–	–	–
C[C@@H](Nc1cc(F)cc(F)c1)c1cc(C(=O)N(C)C)cc2c(=O)cc(N3CCOCC3)oc12 [AZD8186] + CC(=O)c1c(C)c2cnc(Nc3ccc(N4CCNCC4)cn3)nc2n(C2CCCC2)c1=O [Palbociclib] (first compound max 10 µM, 7x7, partner max 10 µM)	-0.0459	0.0847	-0.0319	0.0712	0.0769	0.0548	-0.0735	-0.0156	0.0261	0.0599	0.0142	0.0321	0.103	0.138	–	–	–	–	–	–
C[C@@H](Oc1cc(-c2cnn(C3CCNCC3)c2)cnc1N)c1c(Cl)ccc(F)c1Cl [Crizotinib] + CC1=C(C(=CC=C1)Cl)NC(=O)C2=CN=C(S2)NC3=CC(=NC(=N3)C)N4CCN(CC4)CCO [Dasatinib] (first compound max 10 µM, 7x7, partner max 2 µM)	0.0371	-0.0147	-0.0588	-0.0209	0.0161	-0.0204	-0.0604	0.0644	-0.0289	0.02	0.0295	-0.0431	-0.0165	-0.0089	–	–	–	–	–	–
C[C@@H](Oc1cc(-c2cnn(C3CCNCC3)c2)cnc1N)c1c(Cl)ccc(F)c1Cl [Crizotinib] + Cn1cnc2c(F)c(Nc3ccc(Br)cc3Cl)c(C(=O)NOCCO)cc21 [Selumetinib] (first compound max 10 µM, 7x7, partner max 10 µM)	0.0212	0.0034	-0.047	-0.0843	-0.0232	-0.086	-0.0369	-0.0191	0.0221	-0.0531	-0.0421	-0.0223	-0.0083	-0.0021	–	–	–	–	–	–
CC1(C)CCC(CN2CCN(c3ccc(C(=O)NS(=O)(=O)c4ccc(NCC5CCOCC5)c([N+](=O)[O-])c4)c(Oc4cnc5[nH]ccc5c4)c3)CC2)=C(c2ccc(Cl)cc2)C1 [Venetoclax] + C[C@@H]1COCCN1C2=NC(=NC(=C2)C3(CC3)[S@](=N)(=O)C)C4=C5C=CNC5=NC=C4 [AZD6738] (first compound max 1 µM, 7x7, partner max 10 µM)	-0.0363	-0.0366	-0.0373	0.0382	-0.006	-0.0601	-0.0242	-0.0365	0.032	–	-0.0654	-0.0593	0.0694	0.0028	0.0739	-0.0378	-0.0944	0.0413	-0.0587	-0.0176
CC1(C)CCC(CN2CCN(c3ccc(C(=O)NS(=O)(=O)c4ccc(NCC5CCOCC5)c([N+](=O)[O-])c4)c(Oc4cnc5[nH]ccc5c4)c3)CC2)=C(c2ccc(Cl)cc2)C1 [Venetoclax] + C[C@@H](Nc1cc(F)cc(F)c1)c1cc(C(=O)N(C)C)cc2c(=O)cc(N3CCOCC3)oc12 [AZD8186] (first compound max 1 µM, 7x7, partner max 3 µM)	-0.0264	0.0036	0.0015	-0.0204	0.0641	-0.0296	0.0001	-0.0198	0.0418	–	-0.023	-0.0256	-0.0292	-0.0046	0.0667	-0.0286	-0.0275	0.0626	-0.0179	0.0077
CC1(C)CCC(CN2CCN(c3ccc(C(=O)NS(=O)(=O)c4ccc(NCC5CCOCC5)c([N+](=O)[O-])c4)c(Oc4cnc5[nH]ccc5c4)c3)CC2)=C(c2ccc(Cl)cc2)C1 [Venetoclax] + Cc1cc2ncnn2cc1Nc1ncc2c(n1)n(C1CCOCC1)c(=O)n2C [AZD7648] (first compound max 1 µM, 7x7, partner max 10 µM)	-0.0413	-0.0583	0.0426	0.0142	0.0477	-0.0339	-0.0363	-0.0514	0.0355	–	-0.172	-0.0124	0.0057	-0.0185	0.0303	-0.0604	-0.061	0.0586	-0.0733	0.0292
CC1(C)CCC(CN2CCN(c3ccc(C(=O)NS(=O)(=O)c4ccc(NCC5CCOCC5)c([N+](=O)[O-])c4)c(Oc4cnc5[nH]ccc5c4)c3)CC2)=C(c2ccc(Cl)cc2)C1 [Venetoclax] + Cn1cnc2c(F)c(Nc3ccc(Br)cc3Cl)c(C(=O)NOCCO)cc21 [Selumetinib] (first compound max 1 µM, 7x7, partner max 3 µM)	-0.0601	-0.0358	0.021	0.021	-0.0022	-0.0406	-0.0203	-0.0344	0.116	–	-0.0664	-0.032	0.0747	0.0163	-0.0691	-0.0238	-0.0264	-0.023	-0.0392	-0.006
